Laboratory results from patent US8188059B2, “Compounds and methods for modulating expression of GCGR” (Isis Pharmaceuticals, Inc., priority 2006, dated 2012).
Strand notation (5' to 3'): a small letter for the sugar, then the base; units joined by * are phosphorothioate-linked, units joined directly phosphodiester-linked; [ ] holds rarer units or linkages, { } end groups; capitals alone tell only the bases. e = 2'-O-(2-methoxyethyl) (MOE); [5mC] = 5-methylcytosine; d = 2'-deoxy (DNA)

How the values were obtained:
rat DGAT2 mRNA [1] = assay: Dose-dependent inhibition of DGAT2 in A10 cells, 0.62-150 nM (Example 22, Table 83); format: cell-based
Description: Additional short antisense compounds targeted to DGAT2 mRNA were tested in vitro. A10 cells were prepared as described above and treated with 0.62, 1.85, 5.56, 16.67, 50.0, and 150.0 nM short antisense compounds to determine if DGAT2 inhibition occurs in a dose-dependent manner. DGAT2 mRNA was measured using quantitative real-time PCR, as described herein. […] Results are presented as percent inhibition of rat DGAT2, relative to untreated control cells.

DGAT2 mRNA = assay: Antisense inhibition of DGAT2 in A10 cells at 75 nM (Example 22, Table 81); format: cell-based, rat; details: approximately 24 hours
Description: Short antisense compounds targeted to a DGAT2 nucleic acid were tested for their effects on DGAT2 mRNA in vitro. Cultured A10 cells in a 96-well plate were treated with 75 nM of short antisense compound. After a treatment period of approximately 24 hours, RNA was isolated from the cells and DGAT2 mRNA levels were measured by quantitative real-time PCR, as described herein. DGAT2 mRNA levels were adjusted according to total RNA content as measured by RIBOGREEN®. […]

mouse SGLT2 mRNA = assay: Mouse SGLT2 mRNA levels in kidney, additional 1-10-1 and 2-8-2 MOE gapmers, Balb/c mice (Example 15, Table 68); format: in vivo
Description: 1-10-1 and 2-8-2 MOE gapmer short antisense compounds were designed to target different regions of the mouse SGLT2 RNA but have complementarity across species. […] All cytidine residues are 5-methylcytidines.
The short antisense compounds were analyzed for their effect on mouse SGLT2 mRNA levels in vivo. Data was taken from three experiments in which male 6-week old Balb/c mice were dosed twice per week for three weeks with 0.5, 0.1, or 0.02 umol/kg of either a 1-10-1 or 2-8-2 MOE gapmer given by intraperitoneal injection. Mice were sacrificed 48 hours following last administration and evaluated for SGLT2 levels in kidney. Target levels were determined by RT, real-time PCR as described by other examples herein. PCR results were normalized to an internal ISIS control.

rat DGAT2 mRNA [2] = assay: Dose-dependent inhibition of DGAT2 in A10 cells, 6.25-200 nM (Example 22, Table 82); format: cell-based
Description: Additional short antisense compounds targeted to DGAT2 mRNA were tested in vitro in a dose-response experiment. A10 cells were prepared as described above and treated with 6.25, 12.5, 25.0, 50.0, 100.0, and 200.0 nM short antisense compounds to determine if DGAT2 inhibition occurs in a dose-dependent manner. […] Results are presented as percent inhibition, relative to untreated control cells.

SGLT2 mRNA = SGLT2 mRNA levels in kidney of Balb/c mice, twenty 1-10-1 MOE gapmers at 350 nmol/kg, PPS 534 and PPS 553 (Example 18, Table 74); format: in vivo, mouse; details: 350 nmol/kg i.p. twice per week for two weeks
Description: Twenty 1-10-1 MOE gapmers that are complementary to human/monkey/mouse/rat SGLT2 were designed, synthesized and tested in vivo for suppression of SGLT2 mRNA levels in kidney. Data are averages from two experiments in which male 6-week old Balb/c mice were administered intraperitoneal injections of 350 nmol/kg of oligonucleotide, twice per week, over a period of two weeks (a total of four injections). Mice were sacrificed 48 hours following the last administration and evaluated for SGLT2 mRNA levels in kidney. SGLT2 mRNA levels were determined by quantitative real-time PCR analysis according to standard procedures, using two different PCR primer probe sets, primer probe set (PPS) 534 and PPS 553. SGLT2 mRNA levels were normalized to cyclophilin mRNA levels, which were also measured by quantitative real-time PCR.

## 372524 (antisense eG*e[5mC]*e[5mC]*dA*dG*dG*d[5mC]*dA*dT*dG*dG*dA*dG*e[5mC]*eT*e[5mC]) [compound 372524]
Rat DGAT2 mRNA [1]; 0.62 nM
  percent inhibition of rat DGAT2: 7
Rat DGAT2 mRNA [1]; 1.85 nM
  percent inhibition of rat DGAT2: 0
Rat DGAT2 mRNA [1]; 5.56 nM
  percent inhibition of rat DGAT2: 5
Rat DGAT2 mRNA [1]; 16.67 nM
  percent inhibition of rat DGAT2: 30
Rat DGAT2 mRNA [1]; 50 nM
  percent inhibition of rat DGAT2: 68
Rat DGAT2 mRNA [1]; 150 nM
  percent inhibition of rat DGAT2: 91
DGAT2 mRNA
  DGAT2 mRNA, % Control: 21%

## ISIS 388627 (antisense eG*e[5mC]*dA*d[5mC]*dA*d[5mC]*dA*dG*d[5mC]*dT*eG*e[5mC])
Mouse SGLT2 mRNA; 0.02 umol/kg i.p. twice per week for three weeks
  % change in SGLT2 expression relative to saline: −38%
Mouse SGLT2 mRNA; 0.1 umol/kg i.p. twice per week for three weeks
  % change in SGLT2 expression relative to saline: −50%
Mouse SGLT2 mRNA; 0.5 umol/kg i.p. twice per week for three weeks
  % change in SGLT2 expression relative to saline: −65%

## 372563 (antisense eA*eG*d[5mC]*d[5mC]*dA*dG*dG*dT*dG*dA*d[5mC]*dA*eG*eA) [compound 372563]
Rat DGAT2 mRNA [1]; 0.62 nM
  percent inhibition of rat DGAT2: 0
Rat DGAT2 mRNA [1]; 1.85 nM
  percent inhibition of rat DGAT2: 0
Rat DGAT2 mRNA [1]; 5.56 nM
  percent inhibition of rat DGAT2: 0
Rat DGAT2 mRNA [1]; 16.67 nM
  percent inhibition of rat DGAT2: 1
Rat DGAT2 mRNA [1]; 50 nM
  percent inhibition of rat DGAT2: 4
Rat DGAT2 mRNA [1]; 150 nM
  percent inhibition of rat DGAT2: 46
DGAT2 mRNA
  DGAT2 mRNA, % Control: 48%

## 372569 (antisense e[5mC]*eA*dT*dG*dA*dG*dG*dA*dT*dG*dA*d[5mC]*eA*e[5mC]) [compound 372569]
DGAT2 mRNA
  DGAT2 mRNA, % Control: 104%

## 372624 (antisense eT*eG*dG*dT*d[5mC]*dT*dT*dG*dT*dG*dA*dT*eT*eG) [compound 372624]
Rat DGAT2 mRNA [1]; 0.62 nM
  percent inhibition of rat DGAT2: 0
Rat DGAT2 mRNA [1]; 1.85 nM
  percent inhibition of rat DGAT2: 0
Rat DGAT2 mRNA [1]; 5.56 nM
  percent inhibition of rat DGAT2: 0
Rat DGAT2 mRNA [1]; 16.67 nM
  percent inhibition of rat DGAT2: 1
Rat DGAT2 mRNA [1]; 50 nM
  percent inhibition of rat DGAT2: 16
Rat DGAT2 mRNA [1]; 150 nM
  percent inhibition of rat DGAT2: 38
DGAT2 mRNA
  DGAT2 mRNA, % Control: 56%

## 372568 (antisense eG*eA*d[5mC]*dA*d[5mC]*dT*dG*d[5mC]*dA*dG*dG*d[5mC]*e[5mC]*eA) [compound 372568]
Rat DGAT2 mRNA [2]; 6.25 nM
  percent inhibition of DGAT2: 0
Rat DGAT2 mRNA [2]; 12.5 nM
  percent inhibition of DGAT2: 0
Rat DGAT2 mRNA [2]; 50.0 nM
  percent inhibition of DGAT2: 26
Rat DGAT2 mRNA [2]; 100.0 nM
  percent inhibition of DGAT2: 72
Rat DGAT2 mRNA [2]; 200.0 nM
  percent inhibition of DGAT2: 69
Rat DGAT2 mRNA [2]; […]
  percent inhibition of DGAT2: 15

## 372508 (antisense eA*eG*eT*dT*d[5mC]*d[5mC]*dT*dG*dG*dT*dG*dG*dT*e[5mC]*eA*eG) [compound 372508]
Rat DGAT2 mRNA [1]; 0.62 nM
  percent inhibition of rat DGAT2: 0
Rat DGAT2 mRNA [1]; 1.85 nM
  percent inhibition of rat DGAT2: 0
Rat DGAT2 mRNA [1]; 5.56 nM
  percent inhibition of rat DGAT2: 6
Rat DGAT2 mRNA [1]; 16.67 nM
  percent inhibition of rat DGAT2: 14
Rat DGAT2 mRNA [1]; 50 nM
  percent inhibition of rat DGAT2: 39
Rat DGAT2 mRNA [1]; 150 nM
  percent inhibition of rat DGAT2: 71
DGAT2 mRNA
  DGAT2 mRNA, % Control: 35%

## 372500 (antisense eG*eT*eG*dT*dG*dT*d[5mC]*dT*dT*d[5mC]*dA*d[5mC]*d[5mC]*eA*eG*e[5mC]) [compound 372500]
Rat DGAT2 mRNA [1]; 0.62 nM
  percent inhibition of rat DGAT2: 0
Rat DGAT2 mRNA [1]; 1.85 nM
  percent inhibition of rat DGAT2: 0
Rat DGAT2 mRNA [1]; 5.56 nM
  percent inhibition of rat DGAT2: 0
Rat DGAT2 mRNA [1]; 16.67 nM
  percent inhibition of rat DGAT2: 18
Rat DGAT2 mRNA [1]; 50 nM
  percent inhibition of rat DGAT2: 64
Rat DGAT2 mRNA [1]; 150 nM
  percent inhibition of rat DGAT2: 88
DGAT2 mRNA
  DGAT2 mRNA, % Control: 16%

## 372562 (antisense eG*eT*d[5mC]*dT*dT*dG*dG*dA*dG*dG*dG*d[5mC]*e[5mC]*eG) [compound 372562]
Rat DGAT2 mRNA [2]; 6.25 nM
  percent inhibition of DGAT2: 0
Rat DGAT2 mRNA [2]; 12.5 nM
  percent inhibition of DGAT2: 0
Rat DGAT2 mRNA [2]; 50.0 nM
  percent inhibition of DGAT2: 36
Rat DGAT2 mRNA [2]; 100.0 nM
  percent inhibition of DGAT2: 48
Rat DGAT2 mRNA [2]; 200.0 nM
  percent inhibition of DGAT2: 75
Rat DGAT2 mRNA [2]; […]
  percent inhibition of DGAT2: 0

## 372491 (antisense eA*e[5mC]*eA*dT*dG*dA*dG*dG*dA*dT*dG*dA*d[5mC]*eA*e[5mC]*eT) [compound 372491]
DGAT2 mRNA
  DGAT2 mRNA, % Control: 80%

## 379694 (antisense eG*dA*d[5mC]*dG*dA*dA*dG*dG*dT*d[5mC]*dT*eG) [compound 379694]
SGLT2 mRNA; primer probe set 534
  SGLT2 mRNA in kidney, % change relative to saline: −42.1%
SGLT2 mRNA; primer probe set 553
  SGLT2 mRNA in kidney, % change relative to saline: −54.4%
